According to article PMC13313556, “Development and characterization of triazole-based WDR5 inhibitors for the treatment of glioblastoma” (JCI Insight, 2026):

Experiments:
DI318 CSCs = assay: Extreme limiting dilution assay (ELDA) in DI318; type: cell-based, human; settings: 14 days
Protocol: L0 and DI318 CSCs were split with Accutase as single cells into NBMc. In total, 200 μL of CSCs were seeded into each well of a 96-well TC treated plate (n = 10 well per density) at 50, 25, 13, 6, 3, and 1.5 cells/well. […] The stem cell frequency was quantified and treatments were compared with DMSO as described by Hu and Smyth ([98]).

[1] = tested on: intracranial L0 PDX tumors; assay: Long-term intracranial L0 xenograft; type: in vivo; settings: 30 mg/kg once a day i.p.
Protocol: Briefly, L0 cells were intracranial injected into 6–12 week old NSG mice. Once fully anesthetized, mice were secured into a stereotaxic apparatus and 20,000 L0 Cells were injected into the left hemisphere 0.5 mm rostral and 1.8 mm lateral to the b4regma with 3.5 mm depth from the scalp. […] Animals were monitored over time for the presentation of neurological and behavioral symptoms at which time the animals were humanely euthanized. Survival analysis was completed using PRISM 9.1.2 and comparison were made using Log-Rank (Mantel-Cox) test.

MV4:11 = settings: read-out: MV4:11 GI50; cited from earlier work

Compound: COc1cc(Cn2nnc3c2CCc2c(-c4cn(C)nc4C(F)(F)F)cc(Cn4ccnc4C)cc2-3)cc(OC)c1 [C3TD078]
- DI318 ELDA stem cell frequency (1 in N) (DI318 CSCs; 20 nM): 1.6
- DI318 ELDA stem cell frequency (1 in N) (DI318 CSCs; 200 nM): 2.1
- DI318 ELDA stem cell frequency (1 in N) (DI318 CSCs; 2000 nM): 2.2

Compound: COc1cc(Cn2nnc3c2CCc2c-3cc(Cn3ccnc3C)cc2C2CC2)ccc1F [C3TD343]
- effect on survival [1]: no effect on survival
- tolerability ([1]; up to 71 days): well tolerated
- survival in L0 Intracranial Xenograft (Kaplan-Meier) ([1]; vehicle 72 days): 71 days

Compound: COc1cc(CN2CCc3c(cc(Cn4ccn(C)c4=N)cc3-c3ccc(F)cc3C)C2=O)cc(OC)c1 [C16, reference compound]
- GI50 (MV4:11): 38 nM
